A word on the IC50: it is the midpoint of a concentration-inhibition curve. Lower therefore signals inhibition by little substance.

The target of this experiment is T1, DPP-4 (Homo sapiens, UniProt P27487).
T1 construct: purchased MAK203
T1 sequence (P27487 whole entry): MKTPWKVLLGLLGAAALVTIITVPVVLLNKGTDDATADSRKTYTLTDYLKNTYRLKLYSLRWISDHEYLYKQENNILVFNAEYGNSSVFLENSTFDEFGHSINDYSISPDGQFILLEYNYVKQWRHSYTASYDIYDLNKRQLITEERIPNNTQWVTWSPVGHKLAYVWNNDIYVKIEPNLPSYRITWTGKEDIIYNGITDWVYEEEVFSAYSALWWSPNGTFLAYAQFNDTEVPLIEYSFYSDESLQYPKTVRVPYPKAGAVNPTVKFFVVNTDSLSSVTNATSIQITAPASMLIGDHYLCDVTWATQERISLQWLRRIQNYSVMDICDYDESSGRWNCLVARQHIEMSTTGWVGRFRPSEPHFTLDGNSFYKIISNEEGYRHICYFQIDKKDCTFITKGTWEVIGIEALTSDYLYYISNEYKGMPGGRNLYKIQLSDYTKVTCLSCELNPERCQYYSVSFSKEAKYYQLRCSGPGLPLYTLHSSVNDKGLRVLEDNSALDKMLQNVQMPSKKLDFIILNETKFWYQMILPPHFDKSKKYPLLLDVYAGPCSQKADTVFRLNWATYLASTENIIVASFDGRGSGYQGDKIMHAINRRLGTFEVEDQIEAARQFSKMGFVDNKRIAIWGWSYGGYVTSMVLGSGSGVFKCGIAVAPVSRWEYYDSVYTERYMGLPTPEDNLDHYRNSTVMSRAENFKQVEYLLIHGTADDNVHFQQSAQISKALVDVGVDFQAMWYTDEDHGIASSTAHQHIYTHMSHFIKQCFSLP
The experiment is described as follows: in vitro DPP-4 inhibitory activity assay (DPP-4 inhibitor screening kit MAK203). In kind it is biochemical. The note with it: fluorescence assay kit, 37°C; IC50 from linear equation of inhibition % vs concentration. Here is the method: The in vitro DPP-4 inhibitory activity of the prepared compounds was evaluated using the DPP-4 inhibitor screening kit (MAK203) according to the test protocol with slight modifications ([17]). […] Substrate solutions (25 μL) were added to each well, covered, and incubated at 37°C for 30 minutes. […] The following formula was used to calculate the percent inhibition (Equation 1):
Inhibition %= (initial activity-inhibitor activity)/initial activity×100 %
The IC50 value was calculated from y = a + bx (linear equation) obtained from the relation of the inhibition activity (%) (y) and the concentration (x) of the substance being measured.
On to `CN(C)Cc1nc2ccccc2c(=O)n1Cc1ccccc1C#N` [5a, 2-({2-[Dimethylaminomethyl]quinazolin-4-one-3-yl}methyl)benzonitrile], for which the IC50 was found to be 4.92 µM.
`CCN(CC)Cc1nc2ccccc2c(=O)n1Cc1ccccc1C#N` [5b, 2-({2-[Diethylaminomethyl]quinazolin-4-one-3-yl}methyl)benzonitrile] showed an IC50 of 5.29 µM.
In the case of `CCCCN(CCCC)Cc1nc2ccccc2c(=O)n1Cc1ccccc1C#N` [5c, 2-({2-[Dibutylaminomethyl]quinazolin-4-one-3-yl}methyl)benzonitrile], inhibition was half-maximal at 6.78 µM (IC50).
The figure for `N#Cc1ccccc1Cn1c(CN2CCOCC2)nc2ccccc2c1=O` [5d, 2-({2-[Morpholinomethyl]quinazolin-4-one-3-yl}methyl)benzonitrile] is 1.46 µM; for `N#Cc1ccccc1Cn1c(CN2CCCC2)nc2ccccc2c1=O` [5e, 2-({2-[Pyrrolidinomethyl]quinazolin-4-one-3-yl}methyl)benzonitrile] it is 3.07 µM; for `CN1CCN(Cc2nc3ccccc3c(=O)n2Cc2ccccc2C#N)CC1` [5f, 2-({2-[N-methylpiperazinomethyl]quinazolin-4-one-3-yl}methyl)benzonitrile] it is 3.56 µM.

These data come from paper PMC12296639, “Synthesis and Bioactivity Investigation of Novel 2-({2-[(Dialkylamino) Methyl] Quinazolin-4-one-3-yl} Methyl) Benzonitrile Derivatives as Dipeptidyl Peptidase-4 Inhibitory Agent” (Iranian Journal of Pharmaceutical Research : IJPR, 2025).
